Results taken from patent publication US20250325677A1, “STAT6 DEGRADERS” (Gilead Sciences, Inc., priority 2024, published 2025).

The compounds below were run against STAT6 (Homo sapiens (Human), UniProt P42226) (assay: STAT6 degrader assay (HiBiT, HeLa LgBiT clone 4.14)). Details: HeLa LgBiT clone 4.14, 4-24 h; geometric mean; given for compounds with >80% Emax; read-out: STAT6 degradation DC50.
Chain of STAT6 (P42226 whole entry): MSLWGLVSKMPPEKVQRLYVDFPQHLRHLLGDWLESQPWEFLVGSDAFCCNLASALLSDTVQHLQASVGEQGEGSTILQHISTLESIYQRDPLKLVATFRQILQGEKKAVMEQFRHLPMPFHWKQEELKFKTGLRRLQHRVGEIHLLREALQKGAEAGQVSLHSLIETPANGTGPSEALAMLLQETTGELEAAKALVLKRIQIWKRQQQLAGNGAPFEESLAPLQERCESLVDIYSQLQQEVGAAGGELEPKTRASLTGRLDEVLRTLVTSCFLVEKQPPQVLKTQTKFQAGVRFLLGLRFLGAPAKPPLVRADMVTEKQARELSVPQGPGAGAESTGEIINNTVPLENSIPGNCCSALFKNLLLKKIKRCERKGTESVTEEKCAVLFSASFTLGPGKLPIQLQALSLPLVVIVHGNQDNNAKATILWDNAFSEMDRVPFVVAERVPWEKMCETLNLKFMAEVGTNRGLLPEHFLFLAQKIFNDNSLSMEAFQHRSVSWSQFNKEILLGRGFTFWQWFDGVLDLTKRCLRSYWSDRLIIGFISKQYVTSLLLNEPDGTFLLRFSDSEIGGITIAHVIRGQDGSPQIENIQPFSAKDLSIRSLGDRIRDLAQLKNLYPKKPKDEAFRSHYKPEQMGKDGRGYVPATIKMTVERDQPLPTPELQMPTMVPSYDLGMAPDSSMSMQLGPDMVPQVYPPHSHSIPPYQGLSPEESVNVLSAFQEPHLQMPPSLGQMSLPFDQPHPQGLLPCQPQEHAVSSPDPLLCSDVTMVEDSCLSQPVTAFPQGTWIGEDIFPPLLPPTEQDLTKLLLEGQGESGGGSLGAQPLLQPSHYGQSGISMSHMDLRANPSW
Format: cell-based
Method: This was a HiBit based assay. A HeLa cell line stably transfected with a small protein, LgBit (Large Bit) was obtained from Promega. These cells express endogenous STAT6. A small 11 amino acid gene sequence (HiBiT) was inserted in the STAT6 gene using CRISPR technology. Once STAT6 protein is expressed in the cells, the HiBiT sequence will bind the LgBit in the cells resulting in a functional NanoBiT protein, giving a luminescent tag to STAT6, see FIG. 2.
Single cell clones were prepared and the clone 4.14 was selected for the assay based on that clone showing high luminescence, high STAT6 phosphorylation upon stimulation with IL-4, and inhibition of luminescence when cells were treated with STAT6 siRNA.
HeLa LgBiT clone 4.14 cells were suspended in DMEM with 10% FCS, 1% Pen/Strep, Na-pyrovate and Hygromycin B, at a concentration of 1.25*105 cells pr mL. 5000 cells were added pr well of a 384 well plate and 20 nL of compound was added by Echo® liquid handler. NN6394A (terfenadine, a toxic compound) was added to control wells at 50 μM concentration to establish the assay window. In these wells the cells are dead which equals 100% degradation of STAT6.
After 4-24 h of incubation at 37° C. under 5% CO2/95% air, 5 μL substrate (Nano-GLO®) was added to the wells and the plates were centrifuged and incubated for 0.5 h.
The luminescence in the wells as a measure of non-degraded STAT6 was measured in a plate reader (BMG Pherastar FSX). The measured DC50 (in nM) was determined.
The dose-response curves Examples 3p1, 3e50, 3e17, and 3e51 are shown below (where percent degradation is plotted vs. test compound concentration in M on a log-scale).
`COCc1nc2cc(-c3ccnc4c3cc([C@H](C)N3CCC(c5ccc(C(=O)N6CCC(CN7CCN(Cc8ccc9c(c8)n(C)c(=O)n9C8CCC(=O)NC8=O)C[C@@H]7C)CC6)cc5)CC3)n4C)ccc2[nH]1` (stereo partly drawn) [Example 3e22, 3-(5-(((S)-4-((1-(4-(1-((S)-1-(4-(2-(methoxymethyl)-1H-benzo[d]imidazol-5-yl)-1-methyl-1H-pyrrolo[2,3-b]pyridin-2-yl)ethyl)piperidin-4-yl)benzoyl)piperidin-4-yl)methyl)-3-methylpiperazin-1-yl)methyl)-3-methyl-2-oxo-2,3-dihydro-1H-benzo[d]imidazol-1-yl)piperidine-2,6-dione] was tested, and the DC50 was 0.3 nM. `C[C@@H](c1cc2c(-c3ccc(N)nc3)ccnc2n1C)N1CCC(c2ccc(C(=O)N3CCC(CN4CCN(Cc5ccc6c(c5)n(CC(F)(F)F)c(=O)n6C5CCC(=O)NC5=O)CC4)CC3)cc2)CC1` (stereo partly drawn) [Example 3e25, 3-(5-((4-((1-(4-(1-((S)-1-(4-(6-aminopyridin-3-yl)-1-methyl-1H-pyrrolo[2,3-b]pyridin-2-yl)ethyl)piperidin-4-yl)benzoyl)piperidin-4-yl)methyl)piperazin-1-yl)methyl)-2-oxo-3-(2,2,2-trifluoroethyl)-2,3-dihydro-1H-benzo[d]imidazol-1-yl)piperidine-2,6-dione] showed a DC50 of 4 nM. Compound `[2H]C([2H])([2H])n1c(=O)n(C2CCC(=O)NC2=O)c2ccc(CN3CCN(CC4CCN(C(=O)c5ccc(C6CCN([C@@H](C)c7cc8c(-c9ccc(N)nc9)ccnc8n7C)CC6)cc5)CC4)CC3)cc21` (stereo partly drawn) [Example 3e26, 3-(5-((4-((1-(4-(1-((S)-1-(4-(6-aminopyridin-3-yl)-1-methyl-1H-pyrrolo[2,3-b]pyridin-2-yl)ethyl)piperidin-4-yl)benzoyl)piperidin-4-yl)methyl)piperazin-1-yl)methyl)-3-(methyl-d3)-2-oxo-2,3-dihydro-1H-benzo[d]imidazol-1-yl)piperidine-2,6-dione] has a DC50 of 1.1 nM. In the case of `COCc1nc2cc(-c3ccnc4c3cc([C@H](C)N3CCC(c5ccc(C(=O)N6CCC(CN7CCN(Cc8ccc9c(c8)n(C)c(=O)n9C8CCC(=O)NC8=O)CC7)CC6)cc5)CC3)n4C)ccc2[nH]1` (stereo partly drawn) [Example 3e66, 3-(5-((4-((1-(4-(1-((S)-1-(4-(2-(methoxymethyl)-1H-benzo[d]imidazol-5-yl)-1-methyl-1H-pyrrolo[2,3-b]pyridin-2-yl)ethyl)piperidin-4-yl)benzoyl)piperidin-4-yl)methyl)piperazin-1-yl)methyl)-3-methyl-2-oxo-2,3-dihydro-1H-benzo[d]imidazol-1-yl)piperidine-2,6-dione], the DC50 is reported as 0.5 nM. `Cn1c(CN2CCC(c3ccc(C(=O)N4CCC(CC5CCN(Cc6ccc7c(c6)n(C)c(=O)n7C6CCC(=O)NC6=O)CC5)CC4)cc3)CC2)cc2c(-c3ccc4[nH]ncc4c3)ccnc21` (centres unmarked) [Example 3h1, 3-(5-((4-((1-(4-(1-((4-(1H-indazol-5-yl)-1-methyl-1H-pyrrolo[2,3-b]pyridin-2-yl)methyl)-piperidin-4-yl)benzoyl)piperidin-4-yl)methyl)piperidin-1-yl)methyl)-3-methyl-2-oxo-2,3-dihydro-1H-benzo[d]imidazol-1-yl)piperidine-2,6-dione] gave a DC50 of 2.4 nM. In the case of `CNc1ccc(-c2ccnc3c2cc([C@H](C)N2CCC(c4ccc(C(=O)N5CCC(CN6CCN(Cc7ccc8c(c7)n(C)c(=O)n8C7CCC(=O)NC7=O)C[C@@H]6C)CC5)cc4)CC2)n3C)cn1` (stereo partly drawn) [Example 3h2, 3-(3-methyl-5-(((S)-3-methyl-4-((1-(4-(1-((S)-1-(1-methyl-4-(6-(methylamino)pyridin-3-yl)-1H-pyrrolo[2,3-b]pyridin-2-yl)ethyl)piperidin-4-yl)benzoyl)piperidin-4-yl)methyl)piperazin-1-yl)methyl)-2-oxo-2,3-dihydro-1H-benzo[d]imidazol-1-yl)piperidine-2,6-dione], the DC50 is reported as 0.8 nM. `CNc1ccc(-c2ccnc3c2cc([C@H](C)N2CCC(c4ccc(C(=O)N5CCC(CN6CCN(Cc7ccc8c(c7)n(C)c(=O)n8[C@H]7CCC(=O)NC7=O)C[C@@H]6C)CC5)cc4)CC2)n3C)cn1` [Example 3h4, (S)-3-(3-methyl-5-(((S)-3-methyl-4-((1-(4-(1-((S)-1-(1-methyl-4-(6-(methylamino)pyridin-3-yl)-1H-pyrrolo[2,3-b]pyridin-2-yl)ethyl)piperidin-4-yl)benzoyl)piperidin-4-yl)methyl)piperazin-1-yl)methyl)-2-oxo-2,3-dihydro-1H-benzo[d]imidazol-1-yl)piperidine-2,6-dione] was tested, and the DC50 was 1 nM. Compound `CNc1ccc(-c2ccnc3c2cc([C@H](C)N2CC=C(c4c(C)cc(C(=O)N5CCC(CN6CCN(Cc7ccc8c(c7)n(C7CC7)c(=O)n8[C@@H]7CCC(=O)NC7=O)C[C@@H]6C)CC5)cc4F)CC2)n3C)cn1` [Example 3h7, (R)-3-(3-cyclopropyl-5-(((S)-4-((1-(3-fluoro-5-methyl-4-(1-((S)-1-(1-methyl-4-(6-(methylamino)pyridin-3-yl)-1H-pyrrolo[2,3-b]pyridin-2-yl)ethyl)-1,2,3,6-tetrahydropyridin-4-yl)benzoyl)piperidin-4-yl)methyl)-3-methylpiperazin-1-yl)methyl)-2-oxo-2,3-dihydro-1H-benzo[d]imidazol-1-yl)piperidine-2,6-dione] has a DC50 of 1.4 nM. Compound `CNc1ccc(-c2ccnc3c2cc([C@H](C)N2CC=C(c4c(C)cc(C(=O)N5CCC(CC6CCN(c7ccc8c(c7)C7(CC7)C(=O)N8C7CCC(=O)NC7=O)CC6)CC5)cc4F)CC2)n3C)cn1` (stereo partly drawn) [Example 3h8, 3-(5′-(4-((1-(3-fluoro-5-methyl-4-(1-((S)-1-(1-methyl-4-(6-(methylamino)pyridin-3-yl)-1H-pyrrolo[2,3-b]pyridin-2-yl)ethyl)-1,2,3,6-tetrahydropyridin-4-yl)benzoyl)piperidin-4-yl)methyl)piperidin-1-yl)-2′-oxospiro[cyclopropane-1,3′-indolin]-1′-yl)piperidine-2,6-dione] has a DC50 of 28.4 nM. For `C[C@H]1CN(Cc2ccc3c(c2)n(C)c(=O)n3C2CCC(=O)NC2=O)CCN1CC1CCN(C(=O)c2ccc(N3CCN(Cc4cc5c(-c6ccc(N)nc6)ccnc5n4C)CC3)cc2)CC1` (stereo partly drawn) [Example 3h14, 3-(5-(((S)-4-((1-(4-(4-((4-(6-aminopyridin-3-yl)-1-methyl-1H-pyrrolo[2,3-b]pyridin-2-yl)methyl)piperazin-1-yl)benzoyl)piperidin-4-yl)methyl)-3-methylpiperazin-1-yl)methyl)-3-methyl-2-oxo-2,3-dihydro-1H-benzo[d]imidazol-1-yl)piperidine-2,6-dione], the DC50 was 1.1 nM. `Cc1cc(C(=O)N2CCC(CN3CCN(Cc4ccc5c(c4)n(C4CC4)c(=O)n5C4CCC(=O)NC4=O)C[C@@H]3C)CC2)cc(F)c1C1=CCN([C@@H](C)c2cc3c(-c4ccc(N)nc4)ccnc3n2C)CC1` (stereo partly drawn) [Example 3h15, 3-(5-(((S)-4-((1-(4-(1-((S)-1-(4-(6-aminopyridin-3-yl)-1-methyl-1H-pyrrolo[2,3-b]pyridin-2-yl)ethyl)-1,2,3,6-tetrahydropyridin-4-yl)-3-fluoro-5-methylbenzoyl)piperidin-4-yl)methyl)-3-methyl-piperazin-1-yl)methyl)-3-cyclopropyl-2-oxo-2,3-dihydro-1H-benzo[d]imidazol-1-yl)piperidine-2,6-dione] showed a DC50 of 1.1 nM. Work on `CNc1ccc(-c2ccnc3c2cc([C@H](C)N2CCC(c4ccc(C(=O)N5CCC(CN6CCN(Cc7cc8c(cc7F)n(C7CCC(=O)NC7=O)c(=O)n8C)C[C@@H]6C)CC5)cc4)CC2)n3C)cn1` (stereo partly drawn) [Example 3h21, 3-(6-fluoro-3-methyl-5-(((S)-3-methyl-4-((1-(4-(1-((S)-1-(1-methyl-4-(6-(methylamino)pyridin-3-yl)-1H-pyrrolo[2,3-b]pyridin-2-yl)ethyl)piperidin-4-yl)benzoyl)piperidin-4-yl)methyl)piperazin-1-yl)methyl)-2-oxo-2,3-dihydro-1H-benzo[d]imidazol-1-yl)piperidine-2,6-dione] yielded a DC50 of 1 nM.

Same assay, conditions: HeLa LgBiT clone 4.14, 4-24 h; read-out: STAT6 degradation Emax (%)
With `Cn1c(CN2CCC(c3ccc(C(=O)N4CCN(CC5CCN(Cc6ccc7c(c6)n(C)c(=O)n7C6CCC(=O)NC6=O)CC5)CC4)cc3)CC2)cc2c(-c3ccc4[nH]ncc4c3)ccnc21` (centres unmarked) [Example 3f1, 3-(5-((4-((4-(4-(1-((4-(1H-indazol-5-yl)-1-methyl-1H-pyrrolo[2,3-b]pyridin-2-yl)methyl)-piperidin-4-yl)benzoyl)piperazin-1-yl)methyl)piperidin-1-yl)methyl)-3-methyl-2-oxo-2,3-dihydro-1H-benzo[d]imidazol-1-yl)piperidine-2,6-dione] the Emax was 40 to 50%. In the case of `CNc1ccc(-c2ccnc3c2cc([C@H](C)N2CC=C(c4c(C)cc(C(=O)N5CCC(CN6CCN(c7ccc8c(c7)C7(CC7)C(=O)N8C7CCC(=O)NC7=O)C[C@@H]6C)CC5)cc4F)CC2)n3C)cn1` (stereo partly drawn) [Example 3h19, 3-(5′-((S)-4-((1-(3-fluoro-5-methyl-4-(1-((S)-1-(1-methyl-4-(6-(methylamino)pyridin-3-yl)-1H-pyrrolo[2,3-b]pyridin-2-yl)ethyl)-1,2,3,6-tetrahydropyridin-4-yl)benzoyl)piperidin-4-yl)methyl)-3-methylpiperazin-1-yl)-2′-oxospiro[cyclopropane-1,3′-indolin]-1′-yl)piperidine-2,6-dione], the Emax is reported as 40 to 50%.
